One data set relates to HCV 1b replicon. Kind of data set: Renilla luciferase (RLuc)-based HCV replicon reporter assay - HCV 1b RLuc. The class given is cell-based. The conditions noted are these: Hepatitis C virus; Table I; HCV 1b RLuc replicon.
Data set [1] can be described thus: Drug-drug interaction on co-administration. In kind it is in vivo.
The nature of data set [2]: Bilirubin elevations related to dose of Compound 3. In kind it is in vivo, human. The conditions noted are these: doses above 400 mg.
Data set [3] can be described thus: Exposure (AUC) corresponding to dose. In kind it is in vivo, human. Particulars: for AUC: human, in vivo.

Regarding `COC(=O)N[C@H](C(=O)N1CCC[C@H]1c1ncc(-c2ccc3cc(-c4ccc(-c5cnc([C@@H]6CCCN6C(=O)[C@H](NC(=O)OC)c6ccccc6)[nH]5)cc4)ccc3c2)[nH]1)C(C)C`, in the data set with HCV 1b replicon, the EC50 was 8.1 pM. This lies in the picomolar range.

In the data set on HCV 1b replicon, `COC(=O)N[C@H](C(=O)N1CCC[C@H]1c1ncc(-c2ccc3cc4cc(-c5cnc([C@@H]6CCCN6C(=O)[C@@H](NC(=O)OC)C(C)C)[nH]5)ccc4cc3c2)[nH]1)C(C)C` came in with an EC50 of 7 pM.

Turning to `COC(=O)N[C@H](C(=O)N1CCC[C@H]1c1nc(C#Cc2ccc3cc(-c4cnc([C@@H]5CC(F)(F)CN5C(=O)[C@@H](NC(=O)OC)C(C)C)[nH]4)ccc3c2)c[nH]1)C(C)C`, the half-maximal effective concentration (EC50) in the data set with HCV 1b replicon worked out at 14.7 pM.

As to `COC(=O)N[C@H](C(=O)N1CCC[C@H]1c1ncc(C#CC2=CC3SC(c4cnc([C@@H]5CCCN5C(=O)[C@@H](NC(=O)OC)C(C)C)[nH]4)=CC3S2)[nH]1)C(C)C` (stereo partly drawn), a half-maximal effect in the data set on HCV 1b replicon (EC50) was put at 50.3 pM.

With `COC(=O)N[C@H](C(=O)N1CCC[C@H]1c1ncc(-c2cc3cc4sc(-c5cnc([C@@H]6CCCN6C(=O)[C@@H](NC(=O)OC)C(C)C)[nH]5)cc4cc3s2)[nH]1)C(C)C`, the midpoint of the response in the data set with HCV 1b replicon, the EC50, lay at 7.7 pM. Compared with the last compound, the EC50 is about 6.5-fold lower.

Regarding `Fc1ccccc1-c1nc2ccn(Cc3ccc(-c4ccc(C(F)(F)F)cc4C(F)(F)F)nn3)cc-2n1` [Compound 1, 5-((6-(2,4-bis(trifluoromethyl)phenyl)pyridazin-3-yl)methyl)-2-(2-fluorophenyl)-5H-imidazo[4,5-c]pyridine], the “increase of the exposure of Compound 1” value in data set [1] (co-administered with Compound 2) was 2-3 ×. Also, the “effect on drug metabolizing systems” value in data set [1] (in vivo) is on record as “it does not appear that Compound 1 affects drug metabolizing systems”.

With `CC[C@@H]1C[C@]1(NC(=O)[C@@H]1C[C@@H](Oc2cc(-c3csc(NC(C)C)n3)nc3c(Cl)c(OCCN4CCOCC4)ccc23)CN1C(=O)[C@@H](NC(=O)O[C@@H]1C[C@@H]2C[C@@H]2C1)C(C)(C)C)C(=O)O` [Compound 3], the bilirubin elevations result in data set [2] was “more bilirubin elevations in some cases”. Besides, the area under the curve (AUC) is 272 ng·h/mL in data set [3] (10 mg dose) and 48400 ng·h/mL in data set [3] (1000 mg dose).

Regarding `COC(=O)NC(C(=O)N1CC2(CC2)CC1c1ncc(-c2ccc3c(c2)C(F)(F)c2cc(-c4ccc5nc(C6C7CCC(C7)N6C(=O)C(NC(=O)OC)C(C)C)[nH]c5c4)ccc2-3)[nH]1)C(C)C` (stereo not drawn) [Compound 16, (1-{3-[6-(9,9-Difluoro-7-{2-[5-(2-methoxycarbonylamino-3-methyl-butyryl)-5-aza-spiro[2.4]hept-6-yl]-3H-imidazol-4-yl}-9H-fluoren-2-yl)-1H-benzoimidazol-2-yl]-2-aza-bicyclo[2.2.1]heptane-2-carbonyl}-2-methyl-propyl)-carbamic acid methyl ester], the exposure in data set [3] (3 mg dose) worked out at 32.3 ng·h/mL; in data set [3] (30 mg dose), 1415.2 ng·h/mL; in data set [3] (90 mg dose) it was 4137.9 ng·h/mL; in data set [3] (100 mg dose) it was 11166.6 ng·h/mL; in data set [3] (300 mg dose), 38900 ng·h/mL.

The record behind these values is patent publication US20110306541A1, “METHODS FOR TREATING HCV” (priority 2010, published 2011).
